According to the CheMixHub viscosity set:
“And” between values parts separate entries of the source, which are not always exact repeats. Equal values may be shown once.

Experiment: xn = mol fraction of the nth substance listed

CC#N + CO
Conditions | viscosity
298.15 K, 101 kPa, x1 = 0.0892 | 0.478 mPa·s
298.15 K, 101 kPa, x1 = 0.1871 | 0.431 mPa·s
298.15 K, 101 kPa, x1 = 0.2884 | 0.397 mPa·s
298.15 K, 101 kPa, x1 = 0.4054 | 0.365 mPa·s
298.15 K, 101 kPa, x1 = 0.4849 | 0.351 mPa·s
298.15 K, 101 kPa, x1 = 0.5981 | 0.339 mPa·s
298.15 K, 101 kPa, x1 = 0.6986 | 0.331 mPa·s
298.15 K, 101 kPa, x1 = 0.8078 | 0.327 mPa·s
298.15 K, 101 kPa, x1 = 0.9013 | 0.329 mPa·s
298.15 K, 101 kPa, x2 = 0.1219 | 0.331 mPa·s
298.15 K, 101 kPa, x2 = 0.178 | 0.334 mPa·s
298.15 K, 101 kPa, x2 = 0.2 | 0.334 mPa·s
298.15 K, 101 kPa, x2 = 0.216 | 0.329 mPa·s and 0.333 mPa·s
298.15 K, 101 kPa, x2 = 0.3487 | 0.334 mPa·s
298.15 K, 101 kPa, x2 = 0.378 | 0.342 mPa·s
298.15 K, 101 kPa, x2 = 0.394 | 0.343 mPa·s
298.15 K, 101 kPa, x2 = 0.4 | 0.343 mPa·s
298.15 K, 101 kPa, x2 = 0.412 | 0.345 mPa·s
298.15 K, 101 kPa, x2 = 0.577 | 0.369 mPa·s
298.15 K, 101 kPa, x2 = 0.6 | 0.373 mPa·s
298.15 K, 101 kPa, x2 = 0.6804 | 0.339 mPa·s
298.15 K, 101 kPa, x2 = 0.711 | 0.402 mPa·s
298.15 K, 101 kPa, x2 = 0.743 | 0.419 mPa·s
298.15 K, 101 kPa, x2 = 0.8 | 0.435 mPa·s
298.15 K, 101 kPa, x2 = 0.86 | 0.459 mPa·s
298.15 K, 101 kPa, x2 = 0.881 | 0.469 mPa·s
298.15 K, 101 kPa, x2 = 0.887 | 0.472 mPa·s
298.15 K, 101 kPa, x2 = 0.9 | 0.48 mPa·s
298.15 K, 101.33 kPa, x1 = 0.0495 | 0.509 mPa·s
298.15 K, 101.33 kPa, x1 = 0.0999 | 0.479 mPa·s
298.15 K, 101.33 kPa, x1 = 0.1494 | 0.455 mPa·s
298.15 K, 101.33 kPa, x1 = 0.1995 | 0.434 mPa·s
298.15 K, 101.33 kPa, x1 = 0.245 | 0.418 mPa·s
298.15 K, 101.33 kPa, x1 = 0.2998 | 0.4 mPa·s
298.15 K, 101.33 kPa, x1 = 0.3451 | 0.387 mPa·s
298.15 K, 101.33 kPa, x1 = 0.3997 | 0.374 mPa·s
298.15 K, 101.33 kPa, x1 = 0.4489 | 0.364 mPa·s
298.15 K, 101.33 kPa, x1 = 0.495 | 0.357 mPa·s
298.15 K, 101.33 kPa, x1 = 0.5496 | 0.349 mPa·s
298.15 K, 101.33 kPa, x1 = 0.5999 | 0.343 mPa·s
298.15 K, 101.33 kPa, x1 = 0.6494 | 0.34 mPa·s
298.15 K, 101.33 kPa, x1 = 0.6997 | 0.336 mPa·s
298.15 K, 101.33 kPa, x1 = 0.745 | 0.334 mPa·s
298.15 K, 101.33 kPa, x1 = 0.7995 | 0.333 mPa·s
298.15 K, 101.33 kPa, x1 = 0.8496 | 0.335 mPa·s
298.15 K, 101.33 kPa, x1 = 0.8998 | 0.338 mPa·s
298.15 K, 101.33 kPa, x1 = 0.95 | 0.34 mPa·s
303 K, 100 kPa, x1 = 0.0991 | 0.4985 mPa·s
303 K, 100 kPa, x1 = 0.2043 | 0.4812 mPa·s
303 K, 100 kPa, x1 = 0.316 | 0.4588 mPa·s
303 K, 100 kPa, x1 = 0.4039 | 0.4395 mPa·s
303 K, 100 kPa, x1 = 0.5003 | 0.4202 mPa·s
303 K, 100 kPa, x1 = 0.6063 | 0.4016 mPa·s
303 K, 100 kPa, x1 = 0.7402 | 0.3785 mPa·s
303 K, 100 kPa, x1 = 0.8688 | 0.3645 mPa·s
303.15 K, 101 kPa, x1 = 0.0892 | 0.423 mPa·s
303.15 K, 101 kPa, x1 = 0.1871 | 0.385 mPa·s
303.15 K, 101 kPa, x1 = 0.2884 | 0.357 mPa·s
303.15 K, 101 kPa, x1 = 0.4054 | 0.327 mPa·s
303.15 K, 101 kPa, x1 = 0.4849 | 0.317 mPa·s
303.15 K, 101 kPa, x1 = 0.5981 | 0.308 mPa·s
303.15 K, 101 kPa, x1 = 0.6986 | 0.302 mPa·s
303.15 K, 101 kPa, x1 = 0.8078 | 0.299 mPa·s
303.15 K, 101 kPa, x1 = 0.8746 | 0.514 mPa·s
303.15 K, 101 kPa, x1 = 0.9013 | 0.304 mPa·s
308 K, 100 kPa, x1 = 0.0991 | 0.4521 mPa·s
308 K, 100 kPa, x1 = 0.2043 | 0.4145 mPa·s
308 K, 100 kPa, x1 = 0.316 | 0.3945 mPa·s
308 K, 100 kPa, x1 = 0.4039 | 0.3815 mPa·s
308 K, 100 kPa, x1 = 0.5003 | 0.3712 mPa·s
308 K, 100 kPa, x1 = 0.6063 | 0.3621 mPa·s
308 K, 100 kPa, x1 = 0.7402 | 0.3502 mPa·s
308 K, 100 kPa, x1 = 0.8688 | 0.3423 mPa·s
308.15 K, 101 kPa, x1 = 0.0892 | 0.376 mPa·s
308.15 K, 101 kPa, x1 = 0.1871 | 0.346 mPa·s
308.15 K, 101 kPa, x1 = 0.2884 | 0.321 mPa·s
308.15 K, 101 kPa, x1 = 0.4054 | 0.298 mPa·s
308.15 K, 101 kPa, x1 = 0.4849 | 0.291 mPa·s
308.15 K, 101 kPa, x1 = 0.5981 | 0.282 mPa·s
308.15 K, 101 kPa, x1 = 0.6986 | 0.278 mPa·s
308.15 K, 101 kPa, x1 = 0.8078 | 0.276 mPa·s
308.15 K, 101 kPa, x1 = 0.9013 | 0.28 mPa·s
308.15 K, 101.33 kPa, x1 = 0.0495 | 0.451 mPa·s
308.15 K, 101.33 kPa, x1 = 0.0999 | 0.436 mPa·s
308.15 K, 101.33 kPa, x1 = 0.1494 | 0.412 mPa·s
308.15 K, 101.33 kPa, x1 = 0.1995 | 0.395 mPa·s
308.15 K, 101.33 kPa, x1 = 0.245 | 0.38 mPa·s
308.15 K, 101.33 kPa, x1 = 0.2998 | 0.364 mPa·s
308.15 K, 101.33 kPa, x1 = 0.3451 | 0.352 mPa·s
308.15 K, 101.33 kPa, x1 = 0.3997 | 0.341 mPa·s
308.15 K, 101.33 kPa, x1 = 0.4489 | 0.333 mPa·s
308.15 K, 101.33 kPa, x1 = 0.495 | 0.326 mPa·s
308.15 K, 101.33 kPa, x1 = 0.5496 | 0.32 mPa·s
308.15 K, 101.33 kPa, x1 = 0.5999 | 0.314 mPa·s
308.15 K, 101.33 kPa, x1 = 0.6494 | 0.31 mPa·s
308.15 K, 101.33 kPa, x1 = 0.6997 | 0.307 mPa·s
308.15 K, 101.33 kPa, x1 = 0.745 | 0.305 mPa·s
308.15 K, 101.33 kPa, x1 = 0.7995 | 0.305 mPa·s
308.15 K, 101.33 kPa, x1 = 0.8496 | 0.306 mPa·s
308.15 K, 101.33 kPa, x1 = 0.8998 | 0.307 mPa·s
308.15 K, 101.33 kPa, x1 = 0.95 | 0.309 mPa·s
313 K, 100 kPa, x1 = 0.0991 | 0.4125 mPa·s
313 K, 100 kPa, x1 = 0.2043 | 0.3956 mPa·s
313 K, 100 kPa, x1 = 0.316 | 0.3838 mPa·s
313 K, 100 kPa, x1 = 0.4039 | 0.3736 mPa·s
313 K, 100 kPa, x1 = 0.5003 | 0.3612 mPa·s
313 K, 100 kPa, x1 = 0.6063 | 0.3512 mPa·s
313 K, 100 kPa, x1 = 0.7402 | 0.3375 mPa·s
313 K, 100 kPa, x1 = 0.8688 | 0.3215 mPa·s
318.15 K, 101.33 kPa, x1 = 0.0495 | 0.403 mPa·s
318.15 K, 101.33 kPa, x1 = 0.0999 | 0.39 mPa·s
318.15 K, 101.33 kPa, x1 = 0.1494 | 0.376 mPa·s
318.15 K, 101.33 kPa, x1 = 0.1995 | 0.361 mPa·s
318.15 K, 101.33 kPa, x1 = 0.245 | 0.347 mPa·s
318.15 K, 101.33 kPa, x1 = 0.2998 | 0.333 mPa·s
318.15 K, 101.33 kPa, x1 = 0.3451 | 0.323 mPa·s
318.15 K, 101.33 kPa, x1 = 0.3997 | 0.313 mPa·s
318.15 K, 101.33 kPa, x1 = 0.4489 | 0.306 mPa·s
318.15 K, 101.33 kPa, x1 = 0.495 | 0.3 mPa·s

CCCCCCCCO + COC(=O)OC
viscosity [mPa·s], 100 kPa
Conditions | 293.15 K | 298.15 K | 303.15 K | 308.15 K | 313.15 K | 318.15 K | 323.15 K
x2 = 0.1 | – | – | 4.529 | 3.905 | 3.388 | 2.951 | 2.59
x2 = 0.1003 | 6.22 | 5.35 | 4.58 | 3.94 | 3.41 | 2.97 | 2.61
x2 = 0.1999 | – | – | 3.34 | 2.917 | 2.56 | 2.263 | –
x2 = 0.2001 | 4.4 | 3.86 | 3.45 | 2.93 | 2.61 | 2.24 | 1.99
x2 = 0.2997 | 3.28 | 2.87 | 2.52 | 2.22 | 1.97 | 1.76 | 1.58
x2 = 0.3 | – | – | 2.516 | 2.22 | 1.971 | 1.763 | –
x2 = 0.3999 | – | – | 1.931 | 1.73 | 1.547 | 1.395 | –
x2 = 0.4005 | 2.44 | 2.14 | 1.9 | 1.69 | 1.5 | 1.35 | 1.22
x2 = 0.5 | – | – | 1.505 | 1.358 | 1.229 | 1.119 | –
x2 = 0.5004 | 1.83 | 1.63 | 1.46 | 1.31 | 1.18 | 1.08 | 0.98
x2 = 0.5996 | 1.39 | 1.25 | 1.13 | 1.03 | 0.94 | 0.86 | 0.8
x2 = 0.6 | – | – | 1.183 | 1.079 | 0.984 | 0.903 | –
x2 = 0.7 | – | – | 0.959 | 0.88 | 0.814 | 0.754 | –
x2 = 0.7001 | 1.08 | 0.98 | 0.9 | 0.83 | 0.77 | 0.71 | 0.66
x2 = 0.7999 | – | – | 0.765 | 0.711 | 0.662 | 0.617 | –
x2 = 0.8001 | 0.85 | 0.78 | 0.72 | 0.67 | 0.62 | 0.58 | 0.54
x2 = 0.9 | – | – | 0.633 | 0.591 | 0.554 | 0.523 | –
x2 = 0.9005 | 0.66 | 0.61 | 0.58 | 0.54 | 0.51 | 0.48 | 0.45
